Tests used:
Assay in all cases: Cancer cell growth inhibition
Format in all cases: cell-based
SF295 = details: Homo sapiens, SF-295; SF295 (brain), 72 hr treatment
Procedure: (§1) The ability of select compounds to inhibit cell growth in various cancer cell lines are evaluated. […] The cell lines shown in Table 2 have reduced growth by at least 50% at 10 uM or lower over 72 hr treatment in growth media. The cell lines shown in Table 3 have reduced growth by at least 50% with an IC50 greater than 10 uM.
(§2) Six 10-fold compound dilutions are prepared in DMSO (e.g. 10 mM, 1 mM, 100 uM, 10 uM, 1 uM, and 0.1 uM). Single data points are acquired for each concentration. The final concentration of DMSO is 0.1%. The duration of the treatment is 72 hr. Growth inhibition is measured using Sulforhodamine B in a protein staining assay. Activity of the agents is determined by evaluation the following parameters: IC50, GI50, IC10, TGI, LC50, IC90, and GI90 (where these values can be calculated).

HS729 = HS729 (muscle), 72 hr treatment
Procedure: as §1, §2

SKLMS1 = details: Homo sapiens, SK-LMS-1; SKLMS1 (uterus), 72 hr treatment
Procedure: as §1, §2

NCIH460 = details: Homo sapiens, NCI-H460; NCIH460 (lung), 72 hr treatment
Procedure: as §1, §2

DU145 = details: Homo sapiens, DU-145; DU145 (prostate), 72 hr treatment
Procedure: as §1, §2

PBMC = PBMC (hematological), 72 hr treatment
Procedure: as §1, §2

J82 = details: Homo sapiens; J82 (bladder), 72 hr treatment
Procedure: as §1, §2

SKBR3 = details: Homo sapiens, SK-BR-3; SKBR3 (breast), 72 hr treatment
Procedure: as §1, §2

C33A = details: Homo sapiens, C-33-A; C33A (endometrial), 72 hr treatment
Procedure: as §1, §2

HT29 = details: Homo sapiens, HT-29; HT29 (colon), 72 hr treatment
Procedure: as §1, §2

CAKI1 = details: Homo sapiens, CAKI-1; CAKI1 (kidney), 72 hr treatment
Procedure: as §1, §2

HT1080 = details: Homo sapiens, HT-1080; HT1080 (connective tissue), 72 hr treatment
Procedure: as §1, §2

JAR = JAR (placenta), 72 hr treatment
Procedure: as §1, §2

SKMEL5 = details: Homo sapiens, SK-MEL-5; SKMEL5 (skin), 72 hr treatment
Procedure: as §1, §2

HL-60 = details: Homo sapiens; HL-60 (hematological), 72 hr treatment
Procedure: as §1, §2

22RV1 = details: Homo sapiens; 22RV1 (prostate), 72 hr treatment
Procedure: as §1, §2

A549 = details: Homo sapiens; A549 (lung), 72 hr treatment
Procedure: as §1, §2

MG63 = details: Homo sapiens, MG-63; MG63 (bone), 72 hr treatment
Procedure: as §1, §2

UMUC3 = details: Homo sapiens; UMUC3 (bladder), 72 hr treatment
Procedure: as §1, §2

786O = details: Homo sapiens, 786-0; 786O (kidney), 72 hr treatment
Procedure: as §1, §2

L-363 = details: Homo sapiens; L-363 (hematological), 72 hr treatment
Procedure: as §1, §2

A673 = details: Homo sapiens; A673 (muscle), 72 hr treatment
Procedure: as §1, §2

DLD1 = details: Homo sapiens, DLD-1; DLD1 (colon), 72 hr treatment
Procedure: as §1, §2

CALU6 = details: Homo sapiens, Calu-6; CALU6 (lung), 72 hr treatment
Procedure: as §1, §2

SU-DHL-6 = details: Homo sapiens; SU-DHL-6 (hematological), 72 hr treatment
Procedure: as §1, §2

SKNAS = details: Homo sapiens, SK-N-AS; SKNAS (brain), 72 hr treatment
Procedure: as §1, §2

A431 = details: Homo sapiens, A-431; A431 (skin), 72 hr treatment
Procedure: as §1, §2

SAOS2 = details: Homo sapiens, SAOS-2; SAOS2 (bone), 72 hr treatment
Procedure: as §1, §2

NCIH292 = details: Homo sapiens, NCI-H292; NCIH292 (lung), 72 hr treatment
Procedure: as §1, §2

JIMT1 = details: Homo sapiens, JIMT-1; JIMT1 (breast), 72 hr treatment
Procedure: as §1, §2

GRANTA-519 = details: Homo sapiens; GRANTA-519 (hematological), 72 hr treatment
Procedure: as §1, §2

CLS439 = CLS439 (bladder), 72 hr treatment
Procedure: as §1, §2

Row | Structure (SMILES) | IC50 (SF295) [µM] | IC50 (HS729) [µM] | IC50 (SKLMS1) [µM] | IC50 (NCIH460) [µM] | IC50 (DU145) [µM] | IC50 (PBMC) [µM] | IC50 (J82) [µM] | IC50 (SKBR3) [µM] | IC50 (C33A) [µM] | IC50 (HT29) [µM] | IC50 (CAKI1) [µM] | IC50 (HT1080) [µM] | IC50 (JAR) [µM] | IC50 (SKMEL5) [µM] | IC50 (HL-60) [µM] | IC50 (22RV1) [µM] | IC50 (A549) [µM] | IC50 (MG63) [µM] | IC50 (UMUC3) [µM] | IC50 (786O) [µM] | also measured
1 | CC(C)(CO)c1cc(-c2csc(-c3ccc(NS(C)(=O)=O)cc3Cl)c2)ccn1 [Compound I-8909, N-(3-chloro-4-(4-(2-(1-hydroxy-2-methylpropan-2-yl)pyridin-4-yl)thiophen-2-yl)phenyl)methanesulfonamide] | < 10 | > 10 | > 10 | < 10 | > 10 | > 10 | < 10 | < 10 | < 10 | < 10 | < 10 | < 10 | < 10 | < 10 | < 10 | < 10 | < 10 | > 10 | < 10 | < 10 | IC50 (L-363): < 10 µM; IC50 (A673): > 10 µM; IC50 (DLD1): < 10 µM; IC50 (CALU6): < 10 µM; IC50 (SU-DHL-6): < 10 µM; IC50 (SKNAS): > 10 µM; IC50 (A431): > 10 µM; IC50 (SAOS2): > 10 µM; IC50 (NCIH292): < 10 µM; IC50 (JIMT1): < 10 µM; IC50 (GRANTA-519): > 10 µM; IC50 (CLS439): > 10 µM
2 | CC(C)(O)Cc1cc(-c2csc(-c3ccc(NS(C)(=O)=O)cc3Cl)c2)ccn1 [Compound I-9004, N-(3-chloro-4-(4-(2-(2-hydroxy-2-methylpropyl)pyridin-4-yl)thiophen-2-yl)phenyl)methanesulfonamide] | < 10 | > 10 | > 10 | < 10 | > 10 | > 10 | > 10 | < 10 | < 10 | < 10 | < 10 | < 10 | < 10 | < 10 | < 10 | < 10 | < 10 | > 10 | < 10 | < 10 | IC50 (L-363): < 10 µM; IC50 (A673): > 10 µM; IC50 (DLD1): < 10 µM; IC50 (CALU6): < 10 µM; IC50 (SU-DHL-6): < 10 µM; IC50 (SKNAS): > 10 µM; IC50 (A431): > 10 µM; IC50 (SAOS2): > 10 µM; IC50 (NCIH292): < 10 µM; IC50 (JIMT1): < 10 µM; IC50 (GRANTA-519): > 10 µM; IC50 (CLS439): > 10 µM
3 | CS(=O)(=O)Nc1ccc(-c2cc(-c3ccnc4c3OCCO4)cs2)c(Cl)c1 [Compound I-9017, N-(3-chloro-4-(4-(2,3-dihydro-[1,4]dioxino[2,3-b]pyridin-8-yl)thiophen-2-yl)phenyl)methanesulfonamide] | < 10 | > 10 | > 10 | < 10 | < 10 | > 10 | > 10 | < 10 | < 10 | < 10 | < 10 | < 10 | < 10 | < 10 | < 10 | < 10 | < 10 | > 10 | < 10 | < 10 | IC50 (L-363): < 10 µM; IC50 (A673): < 10 µM; IC50 (DLD1): < 10 µM; IC50 (CALU6): < 10 µM; IC50 (SU-DHL-6): < 10 µM; IC50 (SKNAS): > 10 µM; IC50 (A431): > 10 µM; IC50 (SAOS2): < 10 µM; IC50 (NCIH292): < 10 µM; IC50 (JIMT1): < 10 µM; IC50 (GRANTA-519): < 10 µM; IC50 (CLS439): < 10 µM
